Results from paper PMC13237374 (Communications Chemistry, 2026).

Experiments:
Assay type in all cases: physicochemical
[1] = Aβ42 ThT aggregation assay
Method: It was incubated at different concentrations in the presence of 20 μM ThT quiescently at 37 °C in 96-well half-area non-binding plates (Corning 3881), with 100 μL per well and five replicate wells per concentration. An aluminum film coating minimized evaporation. The fluorescence emission of ThT at 480 nm upon excitation at 440 nm was monitored using a FLUOstar Omega plate-reader (BMG Labtech GmbH, Germany) using a cycle time of 300 s with 40 flashes per reading and 0.2 s settling time per cycle.

[2] = Low-seeded (1% seed:monomer) ThT aggregation assay of medin
Method: After removing outliers manually, the resultant data from kinetic assays were normalized and analyzed using the online platform AmyloFit 2.0[46] made for global aggregation kinetic data-fitting. […] Half-times of unseeded aggregation assays were calculated in the AmyloFit 2.0 platform. For comparison of aggregation half-times of unseeded and low-seeded reactions, data were normalized and fitted using GraphPad Prism 2.0 with2 y=ymin+ymax−ymin/1+t1/2/t^c where y is the normalized ThT fluorescence and c is a constant. […]

[3] = Dynamic light scattering (DLS) of medin
Method: Samples were withdrawn at different time intervals, and the particle size distribution was monitored at 20 °C in a Malvern Zetasizer Nano instrument (Malvern Instruments Limited, United Kingdom) at 70 µL volume (N = 3, n = 3). Two outliers were removed manually before data analysis.

[4] = High-seeded (20–50% seed:total protein) ThT aggregation assay of medin; conditions: for Elongation rate constant k+, fit result: high-seeded assay fitted individually
Method: (§1) All assays were carried out at 37 °C in quiescent conditions at 100 µL sample volume per well in 96-well half-area non-binding plates (Corning 3881), with an aluminum film coating to minimize evaporation. […] ThT fluorescence emission at 480 nm, when excited at 440 nm, was monitored using a FLUOstar Omega plate-reader (BMG Labtech GmbH, Germany) using a cycle time of 180 s with 40 flashes per reading and 0.2 s settling time per cycle. The unseeded reactions were repeated thrice using three different batches of protein.
Amyloid aggregation was monitored using 20 µM ThT in replicate wells. The overnight-grown fibrils were sonicated for 15 s at 50% duty cycle and 10% power using a microtip sonicator (Bandelin Sonopuls, Germany) to produce seeds for subsequent seeded aggregation assays.
(§2) After removing outliers manually, the resultant data from kinetic assays were normalized and analyzed using the online platform AmyloFit 2.0[46] made for global aggregation kinetic data-fitting. All data representations have been produced in GraphPad Prism 2.0. Half-times of unseeded aggregation assays were calculated in the AmyloFit 2.0 platform. For comparison of aggregation half-times of unseeded and low-seeded reactions, data were normalized and fitted using GraphPad Prism 2.0 with2 y=ymin+ymax−ymin/1+t1/2/t^c where y is the normalized ThT fluorescence and c is a constant. All data were fitted with the corresponding model using 50 basin hops to ensure convergence, and the fit with the least MSE was considered the best fit. Two models were used with the consideration of the presence or absence of seeds: secondary nucleation dominated[11] and fragmentation dominated mechanisms. […] The average fibril length for pre-formed aggregate seeds was assumed to be 10,000 monomers.

[5] = Salt (NaCl) titration of medin ThT aggregation kinetics; conditions: [Medin] 75 nM, N = 1, n = 5
Method: as §1
For salt titration experiments, 20 mM NaPi 1 M NaCl 0.2 mM EDTA pH 7.4 was diluted to the final reaction mixtures at final NaCl concentrations of 0, 40, 150, and 500 mM before incubation in replicate wells of a non-binding plate and monitoring of aggregation kinetics as described above.
as §2

[6] = Critical concentration of medin aggregation from ThT amplitude; conditions: half-maximal point of sigmoidal fit of ThT amplitude at 0–40 nM monomer; 20 µM ThT, pH 7.4, 37 °C, quiescent
[7] = Global kinetic fitting (AmyloFit 2.0) of unseeded, low-seeded and high-seeded medin ThT data
Method: as §2

[8] = Unseeded ThT aggregation kinetics of medin monomer; conditions: for Primary nucleation order nc, fit result: unseeded assay fitted individually
Method: After removing outliers manually, the resultant data from kinetic assays were normalized and analyzed using the online platform AmyloFit 2.0[46] made for global aggregation kinetic data-fitting. […] Half-times of unseeded aggregation assays were calculated in the AmyloFit 2.0 platform. For comparison of aggregation half-times of unseeded and low-seeded reactions, data were normalized and fitted using GraphPad Prism 2.0 with2 y=ymin+ymax−ymin/1+t1/2/t^c where y is the normalized ThT fluorescence and c is a constant. All data were fitted with the corresponding model using 50 basin hops to ensure convergence, and the fit with the least MSE was considered the best fit. Two models were used with the consideration of the presence or absence of seeds: secondary nucleation dominated[11] and fragmentation dominated mechanisms[45]. […] The average fibril length for pre-formed aggregate seeds was assumed to be 10,000 monomers[46].

[9] = secondary nucleation dominated model
[10] = global data analysis, fragmentation dominated
[11] = global data analysis, secondary nucleation dominated
[12] = unseeded assays, N = 3, fragmentation dominated, no seed
[13] = unseeded assays, N = 3, secondary nucleation dominated, no seed

## Aβ42: human amyloid-β 42 peptide, recombinantly produced, comparator amyloid
[1]; 20 mM NaPi 0.2 mM EDTA pH 7.4, 37 °C, quiescent, 20 µM ThT
  concentrations at which no aggregation was observed within 24 hours: below 117 nM
[1]; […] Aβ42, pH 7.4, 37 °C
  aggregation half-time t1/2: 1.9 h

## medin: 50-residue peptide cleaved from lactadherin, forms aortic medial amyloid; produced recombinantly in E. coli
[2]; 50–[…] monomer, pH 7.4, 37 °C, 20 µM ThT
  rate constant of the monomer-independent secondary pathway (k2 or k−): 4e-08 s⁻¹
[2]; [9]
  secondary nucleation reaction order n2: ~ 0
[3]; 10 µM medin after quiescent incubation at pH 7.4 and 37 °C, DLS
  hydrodynamic diameter of aggregates: 200–3200 nm
[3]; 10 µM medin monomer on ice, DLS
  incubation time until first traces of higher molecular weight species: at least 1.5 hours
[3]; 10 µM medin, DLS at 20 °C, N = 3, n = 3
  hydrodynamic diameters of monomeric and initial oligomeric species: 0.4–6 nm
[3]; purely monomeric medin, 10 µM in aggregation assay buffer, freshly eluted
  mean hydrodynamic diameter: 0.67 nm
[4]; as printed in the Introduction, physiological pH and temperature in vitro
  elongation rate constant: ~ 10^7 s^−1
[4]; fragmentation dominated model
  Elongation rate constant k+, fit result: 5.4e+07 M⁻¹ s⁻¹
[4]; [9]
  Elongation rate constant k+, fit result: 5.34e+07 M⁻¹ s⁻¹
[4]; high-seeded: 187.5–500 nM monomer + 187.5 nM pre-formed fibrils (20–50% seed:total protein), pH 7.4, 37 °C, quiescent, 20 µM ThT, AmyloFit fit of first phase
  elongation rate constant k+: 5e+07 M⁻¹ s⁻¹
[5]; [NaCl] 0 mM
  Mean t1/2: 3.2 h
[5]; [NaCl] 40 mM
  Mean t1/2: 2.4 h
[5]; [NaCl] 150 mM
  Mean t1/2: 2.5 h
[5]; [NaCl] 500 mM
  Mean t1/2: 2.4 h
[6]
  critical concentration of medin aggregation: ~ 14 nM
[7]; global analysis of all assays
  primary nucleation reaction order nc: ~1
[7]; global analysis of unseeded, low-seeded and high-seeded data, saturated secondary nucleation (n2 = 0) or fragmentation model
  primary nucleation rate constant kn: 1e-08 s⁻¹
[7]; [10]
  Elongation rate constant k+, fit result: 9.53e+06 M⁻¹ s⁻¹
  Primary nucleation order nc, fit result: ~ 1
  Primary nucleation rate constant kn, fit result: 1.15e-08 s⁻¹
  Secondary pathway rate constant k−, fit result: 3.14e-07 s⁻¹
[7]; [11]
  Elongation rate constant k+, fit result: 9.46e+06 M⁻¹ s⁻¹
  Primary nucleation order nc, fit result: ~ 1
  Primary nucleation rate constant kn, fit result: 1.13e-08 s⁻¹
  Secondary nucleation order n2, fit result: ~ 0
  Secondary pathway rate constant k2, fit result: 3.23e-07 s⁻¹
[8]; 10 nM monomer, over 16 h, ThT
  aggregation of 10 nM medin monomer: no aggregation
[8]; physiological pH and temperature, quiescent solution
  lowest concentration at which amyloid fibrils form spontaneously: 25 nM
[8]; fragmentation dominated, no seed
  Primary nucleation order nc, fit result: ~ 1
[8]; secondary nucleation dominated, no seed
  Primary nucleation order nc, fit result: ~ 1
[8]; unseeded assay, secondary nucleation- or fragmentation-dominated spontaneous aggregation model
  primary nucleation reaction order nc: ~ 1
[8]; [12]
  Combined rate constant k+kn, average value: 7.3 M-1s-2
  Combined rate constant k+k−, average value: 1.7 M-1s-2
  Primary nucleation reaction order nc, average value: 1.4
[8]; [13]
  Combined rate constant k+k2, average value: 22.3 M-1s-2
  Primary nucleation reaction order nc, average value: ~ 1
  Secondary nucleation reaction order n2, average value: ~ 0
[8]; unseeded assays, biological replicates N = 3 (different batches), secondary nucleation dominated, no seed
  Combined rate constant k+kn, average value: 0.1 M-1s-2
